{"source": "patent US20010056099A1", "about": "“Method of reducing morbidity and the risk of mortality” (priority 2000, published 2001)", "key": {"OVX rats [1]": {"test_system": "OVX rats", "assay": "Ovariectomized rat model: femoral BMD by dual-energy X-ray absorptiometry", "assay_type": "in vivo", "conditions": "4 weeks", "excerpt": "(§1) In women, estrogen deficiency during the menopause results in increased bone turnover leading to bone loss. Ovariectomy in rats produces estrogen deficiency and increased bone turnover leading to trabecular bone loss similar to that observed in post-menopausal women (Kalu, D. N., Bone and Mineral 1991;15:175; Frost, H. M., Jee W. S. S., Bone and Mineral 1992;18:227; Wronski, T. J., Yen, C-F, Cells Materials 1991 ;(suppl. 1):69). The OVX rat is thus an appropriate model to evaluate compounds for the prevention and treatment of post-menopausal osteoporosis. The ability of PPTN to inhibit estrogen deficiency bone loss was assessed in 5-month-old OVX rats, since ovariectomy causes significant bone loss in the lumbar vertebrae, proximal tibia, and distal femoral metaphyses (Ke, H. Z., et al., Endocrin 1995;136:2435; Chen, H. K., et al., J Bone Miner Res 1995;10:1256).\n(§2) Five-month-old OVX female rats were treated with PPTN at oral doses of 0.733, 7.33, 73.3, and 733 μg/kg/day, or 17α-ethynyl estradiol (EE) at 30 μg/kg/day (10 rats per subgroup) daily for 4 weeks. The oral treatment began 1 day after surgery. Groups of vehicle-treated sham rats (n=10) and vehicle-treated OVX rats (n=10) served as controls. Calcein at 10 mg/kg was injected s.c. to all rats 12 and 2 days before necropsy as a fluorochrome bone marker to measure bone dynamic histomorphometric parameters. The effects of PPTN on the following end points were determined: (a) serum osteocalcin, a biochemical marker of bone turnover, (b) bone mineral density of lumbar vertebrae and distal femoral metaphyses, (c) bone histomorphometry of fifth lumbar vertebral body and proximal tibial metaphyses.\nUsing dual-energy X-ray absorptiometry, the right femur of each rat was scanned ex vivo. Bone mineral density (BMD) of the distal femoral metaphyses (second 0.5 cm from the distal end of femur) and the proximal femur (the first 0.5 cm from the proximal end of femur, which contains the femoral head, neck, and greater trochanter) was determined."}, "OVX rats [2]": {"test_system": "OVX rats", "assay": "Ovariectomized rat model: lumbar vertebral BMD by dual-energy X-ray absorptiometry", "assay_type": "in vivo", "conditions": "4 weeks", "excerpt": "as §1, §2\nThe first to the sixth lumbar vertebrae from each rat were removed during necropsy. These were then scanned ex vivo using dual-energy X-ray absorptiometry. The scan images were analyzed, and bone area, bone mineral content (BMC), and bone mineral density (BMD) of whole lumbar vertebrae (WLV), and LV1 through LV6 were determined. […] The changes in BMC were similar to those observed in BMD. […]"}, "OVX rats [3]": {"test_system": "OVX rats", "assay": "Ovariectomized rat model: serum osteocalcin by radioimmunoassay", "assay_type": "in vivo", "conditions": "daily for 4 weeks", "excerpt": "as §1\nFive-month-old OVX female rats were treated with PPTN at oral doses of 0.733, 7.33, 73.3, and 733 μg/kg/day, or 17α-ethynyl estradiol (EE) at 30 μg/kg/day (10 rats per subgroup) daily for 4 weeks. […] The effects of PPTN on the following end points were determined: (a) serum osteocalcin, a biochemical marker of bone turnover, (b) bone mineral density of lumbar vertebrae and distal femoral metaphyses, (c) bone histomorphometry of fifth lumbar vertebral body and proximal tibial metaphyses. […]"}, "OVX rats [4]": {"test_system": "OVX rats", "assay": "Ovariectomized rat model: bone histomorphometry of fifth lumbar vertebral body", "assay_type": "in vivo", "conditions": "4 weeks; for OVX-induced increase in bone formation rate (BFR) / percent eroded surface (index of osteoclastic bone resorption) compared with sham controls: lumbar vertebra", "excerpt": "as §1, §2\nIn order to understand the cellular mechanism of bone-protective effects of PPTN at the tissue level, bone histomorphometric methods were used to determine the effects of PPTN on cancellous bone of the fifth lumbar vertebral body in OVX rats. Ovariectomy caused significant decreases in trabecular bone volume (trabecular bone area divided by marrow space area, expressed as percent) and trabecular number, and a significant increase in trabecular separation of the fifth lumbar vertebral body."}, "OVX rats [5]": {"test_system": "OVX rats", "assay": "Ovariectomized rat model: histomorphometry of proximal tibial metaphyses", "assay_type": "in vivo", "conditions": "4 weeks", "excerpt": "as §1, §2\nIn order to determine the effect of PPTN on long bone metaphyses, histomorphometric analyses were performed on the proximal tibiae."}, "MDA-MB-231 cells": {"test_system": "MDA-MB-231 cells", "assay": "Inhibition of in vitro human breast tumor cell growth (ER-negative line)", "assay_type": "cell-based", "conditions": "MDA-MB-231 (ER-negative), 6 days incubation, direct cell counts", "procedure": "The in vitro antiproliferative effects of (-)-cis-6-phenyl-5-[4-(2-pyrrolidin-1-yl-ethoxy)-phenyl]-5,6,7,8-tetrahydro-naphthalene-2-ol (PPTN) were tested using two types of human breast cancer cell lines: first, MCF-7 cells, which contain ER as well as progesterone receptors (PgR), and second, MDA-MB-231 cells, which lack ER and PgR, and enable the determination of an effect that is independent of the ER mechanism. The effect of PPTN on the growth of these different cell lines was determined by incubation of the cells with various compound concentrations for 6 days.\nThe antiproliferative effects were then determined by direct cell counts. PPTN inhibited the growth of the ER-positive cell line MCF-7."}, "[6]": {"conditions": "PPTN at 73.3 or 733 μg/kg/day oral"}, "[7]": {"conditions": "PPTN at doses ≧7.33 μg/kg/day oral"}}}
{"smiles": "C#C[C@]1(O)CC[C@H]2[C@@H]3CCc4cc(O)ccc4[C@H]3CC[C@@]21C", "note": "[EE, 17α-ethynyl estradiol, reference compound]", "values": [{"measurement": "OVX-induced decrease in BMD of distal femoral metaphyses", "setting": "OVX rats [1]; EE 30 μg/kg/day oral", "value": "prevented the decrease"}, {"measurement": "proximal femoral BMD", "setting": "OVX rats [1]; EE 30 μg/kg/day oral", "value": "had no effect"}, {"measurement": "OVX-induced decrease in lumbar vertebral BMD", "setting": "OVX rats [2]; EE 30 μg/kg/day oral", "value": "completely prevented"}, {"measurement": "OVX-induced increase in serum osteocalcin concentration", "setting": "OVX rats [3]; EE 30 μg/kg/day oral", "value": "completely prevented"}, {"measurement": "OVX-induced changes in trabecular bone volume, trabecular number and trabecular separation of fifth lumbar vertebral body", "setting": "OVX rats [4]; EE 30 μg/kg/day oral", "value": "completely prevented"}, {"measurement": "bone turnover rate, lumbar vertebra", "setting": "OVX rats [4]; EE 30 μg/kg/day oral", "value": "did not differ from sham controls"}, {"measurement": "trabecular number of fifth lumbar vertebral body compared with sham controls", "setting": "OVX rats [4]; EE 30 μg/kg/day oral", "value": "significantly increased"}, {"measurement": "OVX-induced increase in bone formation rate (BFR)", "setting": "OVX rats [4]; EE 30 μg/kg/day oral", "value": "inhibited this increase"}, {"measurement": "percent eroded surface (index of osteoclastic bone resorption) compared with sham controls", "setting": "OVX rats [4]; EE 30 μg/kg/day oral", "value": "significantly decreased"}, {"measurement": "bone turnover rate in proximal tibial trabecular bone", "setting": "OVX rats [5]; EE 30 μg/kg/day oral", "value": "did not differ from sham controls"}, {"measurement": "osteoclast number per millimeter of bone surface and percent osteoclast surface compared with both sham and OVX controls", "setting": "OVX rats [5]; EE 30 μg/kg/day oral, proximal tibia", "value": "significantly decreased"}]}
{"smiles": "Oc1ccc2c(c1)CC[C@H](c1ccccc1)[C@@H]2c1ccc(OCCN2CCCC2)cc1", "note": "[PPTN, (-)-cis-6-phenyl-5-[4-(2-pyrrolidin-1-yl-ethoxy)-phenyl]-5,6,7,8-tetrahydro-naphthalene-2-ol]", "values": [{"measurement": "BMD of distal femoral metaphyses and proximal femur", "setting": "OVX rats [1]; PPTN at 0.733 or 7.33 μg/kg/day oral", "value": "did not differ from OVX controls"}, {"measurement": "OVX-induced decreases in BMD of distal femoral metaphyses and proximal femur", "setting": "OVX rats [1]; [6]", "value": "completely prevented the decreases"}, {"measurement": "inhibition of cell proliferation", "setting": "MDA-MB-231 cells", "value": "did not inhibit cell proliferation"}, {"measurement": "lumbar vertebral BMD compared with both sham and OVX controls", "setting": "OVX rats [2]; PPTN 73.3 μg/kg/day oral", "value": "increased significantly"}, {"measurement": "OVX-induced decrease in lumbar vertebral BMD", "setting": "OVX rats [2]; PPTN at all dose levels (0.733, 7.33, 73.3, 733 μg/kg/day oral)", "value": "completely prevented"}, {"measurement": "OVX-induced increase in serum osteocalcin concentration", "setting": "OVX rats [3]; [7]", "value": "completely prevented"}, {"measurement": "ED50 in preserving lumbar vertebral cancellous bone mass and structure", "setting": "OVX rats [4]; OVX rats, oral", "value": "less than 0.733 μg/kg/day"}, {"measurement": "trabecular number of fifth lumbar vertebral body compared with sham controls", "setting": "OVX rats [4]; [6]", "value": "significantly increased"}, {"measurement": "bone turnover rate, lumbar vertebra", "setting": "OVX rats [4]; PPTN at all dose levels, oral", "value": "did not differ from sham controls"}, {"measurement": "OVX-induced increase in bone formation rate (BFR)", "setting": "OVX rats [4]; PPTN at all dose levels, oral", "value": "inhibited this increase"}, {"measurement": "percent eroded surface (index of osteoclastic bone resorption) compared with sham controls", "setting": "OVX rats [4]; PPTN at all dose levels, oral", "value": "significantly decreased"}, {"measurement": "OVX-induced changes in trabecular bone volume, trabecular number and trabecular separation of fifth lumbar vertebral body", "setting": "OVX rats [4]; all doses of PPTN (0.733-733 μg/kg/day oral)", "value": "completely prevented"}, {"measurement": "proximal tibial trabecular bone volume", "setting": "OVX rats [5]; PPTN at 0.733 μg/kg/day oral", "value": "no significant effect"}, {"measurement": "percent osteoclast surface compared with OVX controls", "setting": "OVX rats [5]; PPTN at 0.733 μg/kg/day, proximal tibia", "value": "decreased significantly"}, {"measurement": "osteoclast number per millimeter of bone surface and percent osteoclast surface compared with both sham and OVX controls", "setting": "OVX rats [5]; PPTN at 7.33, 73.3, or 733 μg/kg/day oral, proximal tibia", "value": "significantly decreased"}, {"measurement": "bone turnover rate in proximal tibial trabecular bone", "setting": "OVX rats [5]; PPTN at doses of 7.33 to 733 μg/kg/day oral", "value": "did not differ from sham controls"}, {"measurement": "proximal tibial trabecular bone volume compared with OVX controls", "setting": "OVX rats [5]; [7]", "value": "significantly greater"}]}
